# In PMC11747885, “Potent inhibitors of the human RNA ligase Rlig1 highlights its role in RNA integrity maintenance under oxidative cellular stress” (Chemical Science, 2025):
# Several values for one entry are separate records, joined by “and”; a condition that tells them apart may be missing. Equal entries are not always repeated. Entries after “also recorded” stand apart in the source; their conditions may differ. Where two headings read alike, the source gives them in different places.
# Assays:
# [1] = molecular target: T1, human DNA ligase 1 (hLig1) (Homo sapiens, UniProt P18858); assay: DNA ligation assay with various hLig1 concentration at constant inhibitor concentration; assay type: biochemical; conditions: 10 μM compound, hLig1 titrated (500 nM to 31.3 nM), 30 min 37 °C
# T1 construct: made in house; host or cells: E. coli Rosetta BL21 (DE3), pET28a-hLig1
# [2] = in vitro; conditions: human
# [3] = molecular target: T2, Rlig1-AMP (Homo sapiens, UniProt Q8N999); assay: Radioactive RNA ligation assay (hit validation, 10 µM test and IC50 determination); assay type: biochemical; conditions: for Product formation [%] of RNA ligation, Rlig1: three replicates
# T2 construct: made in house; host or cells: E. coli BL21 (DE3), pET15b-Rlig1
# [4] = molecular target: T1, human DNA ligase 1 (hLig1); assay: DNA ligation assay with hLig1 and 47 (compound titration); assay type: biochemical; conditions: for Product formation [%] of DNA ligation, hlig1: three replicates
# [5] = test system: HEK293 cells; assay: RNA integrity analysis of HEK293 cells treated with inhibitors and menadione (TapeStation 28S/18S rRNA); assay type: cell-based, human; conditions: 30 μM compound 24 h
# [6] = log(inhibitor) vs. response, variable slope (four parameters)
# [7] = Figure 5B, Sigmoidal, 4PL, fit Interrupted
# T1 sequence (P18858 whole entry): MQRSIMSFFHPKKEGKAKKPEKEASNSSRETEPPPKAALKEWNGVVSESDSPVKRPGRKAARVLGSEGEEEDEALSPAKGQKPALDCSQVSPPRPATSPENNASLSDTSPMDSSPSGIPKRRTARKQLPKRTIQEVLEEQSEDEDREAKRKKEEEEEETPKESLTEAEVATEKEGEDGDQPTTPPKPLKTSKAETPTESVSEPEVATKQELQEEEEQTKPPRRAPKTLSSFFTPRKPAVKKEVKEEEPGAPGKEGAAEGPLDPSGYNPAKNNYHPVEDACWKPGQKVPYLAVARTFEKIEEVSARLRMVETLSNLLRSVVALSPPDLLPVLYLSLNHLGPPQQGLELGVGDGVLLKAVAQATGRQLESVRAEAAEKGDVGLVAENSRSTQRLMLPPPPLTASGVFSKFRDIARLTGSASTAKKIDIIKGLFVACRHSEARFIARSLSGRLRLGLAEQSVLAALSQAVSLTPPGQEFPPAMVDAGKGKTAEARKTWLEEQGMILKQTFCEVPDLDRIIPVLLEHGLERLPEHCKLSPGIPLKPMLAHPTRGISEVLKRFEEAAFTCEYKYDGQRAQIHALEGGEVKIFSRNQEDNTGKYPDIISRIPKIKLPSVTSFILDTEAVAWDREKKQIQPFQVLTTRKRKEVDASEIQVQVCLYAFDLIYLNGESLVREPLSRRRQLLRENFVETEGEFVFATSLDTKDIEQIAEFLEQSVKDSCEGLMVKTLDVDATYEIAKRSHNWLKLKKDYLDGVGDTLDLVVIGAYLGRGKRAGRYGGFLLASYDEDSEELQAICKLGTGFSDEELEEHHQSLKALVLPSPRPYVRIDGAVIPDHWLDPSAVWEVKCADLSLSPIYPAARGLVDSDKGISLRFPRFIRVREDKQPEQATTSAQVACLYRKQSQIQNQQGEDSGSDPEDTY
# T2 sequence (Q8N999 whole entry): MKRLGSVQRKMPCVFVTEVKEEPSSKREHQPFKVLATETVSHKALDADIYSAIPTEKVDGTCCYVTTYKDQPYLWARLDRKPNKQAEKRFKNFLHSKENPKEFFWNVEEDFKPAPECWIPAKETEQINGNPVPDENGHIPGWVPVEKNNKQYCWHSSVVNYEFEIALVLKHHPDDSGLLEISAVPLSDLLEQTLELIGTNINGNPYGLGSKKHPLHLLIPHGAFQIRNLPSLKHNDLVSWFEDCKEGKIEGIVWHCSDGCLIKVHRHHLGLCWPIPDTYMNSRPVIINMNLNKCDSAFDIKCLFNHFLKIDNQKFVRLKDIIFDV
structure (smiles),measurement,setting,value
Nc1nccc(Nc2ccc(NC(=O)c3ccc(Nc4ncnc5ccccc45)cc3)cc2)n1 [Compound 47],effect on hLig1 activity (in words),[1],least impact on hLig1 activity
same,"viability at 24 h, 0.234375 µM",[2],109%
same,"viability at 24 h, 0.46875 µM",[2],101%
same,"viability at 24 h, 0.9375 µM",[2],102%
same,"viability at 24 h, 1.875 µM",[2],102%
same,"viability at 24 h, 3.75 µM",[2],97.2%
same,"viability at 24 h, 7.5 µM",[2],97.9%
same,"viability at 24 h, 15 µM",[2],93%
same,"viability at 24 h, 30 µM",[2],86%
same,inhibition of Rlig1-AMP ligation (urea-PAGE),"[3]; 10 μM compound, 500 nM Rlig1-AMP, 20 min 37 °C",Ligation was inhibited; also recorded: inhibited Rlig1-AMP
same,"Bottom (best-fit value), Rlig1","[3]; Figure 5B, Sigmoidal, 4PL",1.324
same,"HillSlope (best-fit value), Rlig1","[3]; Figure 5B, Sigmoidal, 4PL",-6.786
same,"Span (best-fit value), Rlig1","[3]; Figure 5B, Sigmoidal, 4PL",68.62
same,"Top (best-fit value), Rlig1","[3]; Figure 5B, Sigmoidal, 4PL, X is log(concentration)",69.95
same,"LogIC50 (best-fit value), Rlig1","[3]; Figure 5B, Sigmoidal, 4PL, log of µM",0.6576
same,IC50,"[3]; Figure 5B, Sigmoidal, 4PL, read-out: IC50 (best-fit value), Rlig1",4.55 µM
same,HillSlope (best-fit value),[3]; four-parameter fit,6.82
same,Span (best-fit value),[3]; four-parameter fit,92.85
same,IC50,"[3]; four-parameter fit, n = 3, read-out: IC50 (best-fit value)",4.54 µM
same,"Product formation [%] of RNA ligation, Rlig1",[3]; log (47 [µM]) 0.273001,3.068% and 1.075% and 8.355%
same,"Product formation [%] of RNA ligation, Rlig1",[3]; log (47 [µM]) 0.574031,27.5278% and 13.8043% and 34.7122%
same,"Product formation [%] of RNA ligation, Rlig1",[3]; log (47 [µM]) 0.875061,98.3243% and 92.1834% and 95.246%
same,"Product formation [%] of RNA ligation, Rlig1",[3]; log (47 [µM]) 1.17609,100% and 96.1318% and 97.0084%
same,"Product formation [%] of RNA ligation, Rlig1",[3]; log (47 [µM]) 1.47712,100% and 98.2475% and 98.511%
same,"Product formation [%] of RNA ligation, Rlig1",[3]; log (47 [µM]) -0.0280287,6.829% and 0.6969% and 9.287%
same,"Product formation [%] of RNA ligation, Rlig1",[3]; log (47 [µM]) -0.329059,4.933% and 0% and 8.486%
same,"Product formation [%] of RNA ligation, Rlig1",[3]; log (47 [µM]) -0.630089,7.315% and 6.312% and 9.428%
same,inhibition at 30 µM,"[3]; log Compound [µM] 1.47712, replicates I-III, read-out: percentage inhibition (dose response curve for IC50)",100%
same,inhibition at 0.234375 µM,"[3]; log Compound [µM] -0.630089, replicates I-III, read-out: percentage inhibition (dose response curve for IC50)",7.32%
same,LogIC50 (best-fit value),"[3]; log of µM, four-parameter fit",0.6569
same,Bottom (best-fit value),[3]; [6],5.434
same,Top (best-fit value),[3]; [6],98.28
same,IC50,"[3]; radioactive ligation assay, 500 nM Rlig1-AMP, 20 min 37 °C, n = 3, read-out: IC50",4.54 µM
same,effect on DNA ligase activity (in words),"[4]; 1:2 dilution series starting from 30 μM compound, 500 nM hLig1, 20 min 37 °C",No effect
same,"Bottom (best-fit value), hlig1",[4]; [7],-4.954
same,"HillSlope (best-fit value), hlig1",[4]; [7],-3.033
same,"Span (best-fit value), hlig1",[4]; [7],97.9
same,"Top (best-fit value), hlig1",[4]; [7],92.94
same,"LogIC50 (best-fit value), hlig1","[4]; Figure 5B, Sigmoidal, 4PL, fit Interrupted, log of µM",1.72
same,"Product formation [%] of DNA ligation, hlig1",[4]; log (47 [µM]) 0.273001,-3.458% and -4.463% and -2.953%
same,"Product formation [%] of DNA ligation, hlig1",[4]; log (47 [µM]) 0.574031,-2.567% and -4.108% and -2.802%
same,"Product formation [%] of DNA ligation, hlig1",[4]; log (47 [µM]) 0.875061,-2.276% and -3.138% and -3.06%
same,"Product formation [%] of DNA ligation, hlig1",[4]; log (47 [µM]) 1.17609,0.5458% and -2.902% and -1.203%
same,"Product formation [%] of DNA ligation, hlig1",[4]; log (47 [µM]) 1.47712,11.4249% and 9.911% and 18.8699%
same,"Product formation [%] of DNA ligation, hlig1",[4]; log (47 [µM]) -0.0280287,-3.67% and -4.363% and -3.165%
same,"Product formation [%] of DNA ligation, hlig1",[4]; log (47 [µM]) -0.329059,-3.453% and -3.785% and -3.456%
same,"Product formation [%] of DNA ligation, hlig1",[4]; log (47 [µM]) -0.630089,-3.095% and -4.479% and -2.914%
same,28S/18S ratio,[5]; Menadione 0 μM,3.0
same,28S/18S ratio,[5]; Menadione 40 μM 5 h,2.1
same,28S/18S ratio,[5]; Menadione 60 μM 5 h,0.9
